From patent publication US7879835B2 (Korea Research Institute of Chemical Technology, priority 2004, dated 2011)

Experiments:
[1] = system: osteoclast (TRAP-positive multinuclear cell) formation; experiment: Inhibitory effect on osteoclast formation (TRAP staining); format: cell-based, mice; conditions: 8 days culture with M-CSF and RANKL, compared to control
Outline: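 Non-adherent bone marrow cells from 7–9-week-old female mice, 2×10^5 per well, cultured 8 days with M-CSF (20 ng/ml), RANKL (30 ng/ml) and compound at 0.3, 1.0 or 3 μM. Formation scored by TRAP staining after fixation, 1 h at 37 °C, pH 5.0.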

osteoclasts = experiment: Inhibitory effect on resorption activity of osteoclast (resorption pit area on calcium phosphate-coated plate); format: cell-based, mice; conditions: compared to control
Experimental: After finishing culture, the plate was washed with distilled water, and 50 μl/well of 5% sodium hypochlorite was added to the plate. The plate was let alone for 5 min, washed again with distilled water to remove the adherent cells, and dried at room temperature. Then, the area of formed resorption pits was calculated by means of Image Pro Plus software (Media Cybernetics Ver. 3.0).

[2] = In vitro pharmacokinetics: metabolic stability in liver microsome; format: in vitro ADME; conditions: human liver microsome 1 mg/ml, 20 μM compound
Experimental: Metabolic stabilities of the compounds of the Examples were examined by employing microsome samples prepared from the human liver.
Each 20 μM of the compounds were reacted with 1 mg/ml of liver microsome and the half-lives and one-hour stabilities of the compounds were determined.

rats = experiment: In vivo acute toxicity test (LD50); conditions: single dose, 2 weeks observation
Experimental: In order to determine the acute toxicities of the compounds prepared in Examples, 6-week old specific pathogen-free (SPF) rats each weighing […] were divided into groups of 10 rat each.
In case of subcutaneous administration, each of the compounds was dissolved in 5% PEG400 solution to a concentration of 20 mg/ml, the resulting solution was serially diluted with 5% PEG400 solution to concentrations of 5, 2.5, 1.25 and 0.625 mg/ml, and the dilutions were subcutaneously injected once to the rats at a dose of 10 ml/kg body weight.
In case of oral administration, each of the compounds was dissolved in soybean oil to a concentration of 180 mg/ml, the resulting solution was serially diluted with soybean oil to concentrations of 80, 20 and 5 mg/ml, and the dilutions were orally administered once to the rats at a dose of 20 ml/kg body weight. […]
During 2 weeks after the administration of the compounds, the death rate, clinical symptoms and weight changes of the rats were observed, and hematological and biochemical tests on blood samples were performed. Then, the rats were sacrificed and the internal organs were visually examined to check any abnormal signs in the organs of chest and abdomen.

[3] = system: osteoclast pregenitor cells; experiment: Cytotoxicity against osteoclast pregenitor (MTT); format: cell-based, mice; conditions: 48 hrs, absorbance at 550 nm
Experimental: (§1) In order examine the toxicities of the compounds of the Examples against osteoclast pregenitors, pregenitor cells were aliquotted onto a 96-well microplate at a density of 2×10^5 cells per well, treated with 2, 4 and 8 μM of the test compounds, respectively, and cultured for 48 hrs in α-MEM supplemented with 20 ng/ml of M-CSF (Peprotech, USA) using 37° C. incubator (5% CO2). At 3 hrs before the culture was finished, 50 μl of MTT (3-(4,5-dimethylthiazol-2-yl)-2,5-diphenyltetrazolium bromide) solution (50 μg/ml) was added to each well. Upon completion of the cell culture, the supernatant was removed, and the precipitated dye was reacted with 100 μl of isopropanol/0.04 N HCl at room temperature for 30 min to dissolve it. The absorbances of the wells were measured at 550 nm, and the relative absorbance of each well relative to that of the control (set as 100) is shown in Table 6.

MG-63 cells = experiment: Cytotoxicity test against osteoblast (MTT); format: cell-based, human
Experimental: as §1
In order to examine the toxicity of the compounds of the Examples against osteoblasts, human osteosarcoma-derived cell line, MG-63 (ATCC No. CRL-1427) cells were treated with 0.1, 0.3, 1.0 and 3.0 μM of the compounds of the Examples, and cultured in DMEM supplemented with 10% FBS (fetal bovine serum).

CO/C=C(/C(=O)OC)c1ccc(Cl)cc1COc1ccc(OCC2CC2)cc1
inhibition at 0.3 µM ([1]; Mus musculus, Osteoclast, 192 h, 0.3 μM, read-out: Osteoclast formation inhibitory effects (%)): 98% | inhibition at 1 µM ([1]; Mus musculus, Osteoclast, 192 h, 1.0 μM, read-out: Osteoclast formation inhibitory effects (%)): 100% | inhibition at 3 µM ([1]; Mus musculus, Osteoclast, 192 h, 3.0 μM, read-out: Osteoclast formation inhibitory effects (%)): 100% | Reduction (%) of the resorption pit area of osteoclasts (osteoclasts; 0.3 uM): 100% | Reduction (%) of the resorption pit area of osteoclasts (osteoclasts; 1 uM): 100% | Reduction (%) of the resorption pit area of osteoclasts (osteoclasts; 3 uM): 100% | One-hour stability [2]: 70% | half-life at 20 µM ([2]; liver microsomes): > 3 h | LD50 (rats; PO): 100-300 mg/kg body weight | LD50 (rats; SC): 5 mg/kg body weight

C=CCOc1cccc(OCc2ccccc2/C(=C\OC)C(=O)OC)c1 [compound 211]
Osteoclast formation inhibitory effects (%) ([1]; 0.3 μM): 23% | Osteoclast formation inhibitory effects (%) ([1]; 1.0 μM): 96% | Osteoclast formation inhibitory effects (%) ([1]; 3.0 μM): 100% | Reduction (%) of the resorption pit area of osteoclasts (osteoclasts; 0.3 uM): 96% | Reduction (%) of the resorption pit area of osteoclasts (osteoclasts; 1 uM): 100% | Reduction (%) of the resorption pit area of osteoclasts (osteoclasts; 3 uM): 100% | relative absorbance relative to that of the control (set as 100), MTT ([3]; 2 uM): 88 | relative absorbance relative to that of the control (set as 100), MTT ([3]; 4 uM): 103 | relative absorbance relative to that of the control (set as 100), MTT ([3]; 8 uM): 103 | relative absorbance relative to that of the control (set as 100), MTT (MG-63 cells; 0.11 uM): 103 | relative absorbance relative to that of the control (set as 100), MTT (MG-63 cells; 0.33 uM): 101 | relative absorbance relative to that of the control (set as 100), MTT (MG-63 cells; 1 uM): 105 | relative absorbance relative to that of the control (set as 100), MTT (MG-63 cells; 3 uM): 106 | Half-life [2]: 1.77 h | One-hour stability [2]: 60% | LD50 (rats; PO): 500 mg/kg body weight | LD50 (rats; SC): 51 mg/kg body weight

C=CCOc1ccc(OCc2ccccc2/C(=C\OC)C(=O)OC)cc1 [compound 179]
Osteoclast formation inhibitory effects (%) ([1]; 0.3 μM): 84% | Osteoclast formation inhibitory effects (%) ([1]; 1.0 μM): 100% | Osteoclast formation inhibitory effects (%) ([1]; 3.0 μM): 100% | Reduction (%) of the resorption pit area of osteoclasts (osteoclasts; 0.3 uM): 86% | Reduction (%) of the resorption pit area of osteoclasts (osteoclasts; 1 uM): 100% | Reduction (%) of the resorption pit area of osteoclasts (osteoclasts; 3 uM): 100% | relative absorbance relative to that of the control (set as 100), MTT (MG-63 cells; 0.11 uM): 117 | relative absorbance relative to that of the control (set as 100), MTT (MG-63 cells; 0.33 uM): 111 | relative absorbance relative to that of the control (set as 100), MTT (MG-63 cells; 1 uM): 108 | relative absorbance relative to that of the control (set as 100), MTT (MG-63 cells; 3 uM): 106 | Half-life [2]: >3 h | One-hour stability [2]: 70% | LD50 (rats; PO): 500 mg/kg body weight | LD50 (rats; SC): 42 mg/kg body weight
